Results as given in article PMC3592886, “Utilization of Quantitative In Vivo Pharmacology Approaches to Assess Combination Effects of Everolimus and Irinotecan in Mouse Xenograft Models of Colorectal Cancer” (PLoS ONE, 2013).
Where two headings read alike, the source gives them in different places. Marks after values point to notes of the source that are not given here.

Experiments:
[1] = Pharmacokinetic study of everolimus in mice bearing HT29 tumors (plasma and tumor, LC/MS/MS); type: in vivo; details: for Cmax / Tmax / AUC(0-t) / CL/F / Vd/F / half-life: nude; for CL/F: read-out: CLss/F (converted); for Vd/F: read-out: Vz/F; for half-life: read-out: t½ (converted)
Protocol: A pharmacokinetic study of everolimus was conducted in mice bearing HT29 tumors (average volume ∼300 mm^3). Mice were treated with either 2.5 or 10 mg/kg everolimus daily for 7 days by oral gavage. Three mice per dose level were sacrificed by cardiac stick exsanguination at 30 minutes, 2, 4, 6 and 24 hours following drug administration on day 7. Plasma and tumor tissue were snap-frozen in liquid N2 and stored at −70°C until analyzed.
Everolimus was measured in plasma and tumors by LC/MS/MS assay. Analytical standards, quality control (QC) and unknowns were all prepared by adding 200 µl of unknown or spiked blank plasma or tumor homogenate (100 mg/ml in water) samples to a 1.5 ml microcentrifuge tube. Samples were extracted by the addition of 1 ml methyl tert-butyl ether (MTBE) followed by 10 min vortex mixing. Samples were centrifuged at 13,000 RPM for 10 min and the supernatant collected and 900 µl transferred to a clean glass test tube. Samples were evaporated to dryness using a rotary evaporator followed by re-suspension in 100 µl of 50% acetonitrile/50% 10 mM ammonium acetate and transferred to auto-sampler vials for analysis. Mass spectra for extracted samples was obtained on a MDS Sciex 3200 Q-TRAP triple quadrupole mass spectrometer (Applied Biosystems, Inc., Foster City, CA) with a turbo ionspray source interfaced to an Agilent 1200 Series Binary Pump SL HPLC system (Santa Clara, CA).The lower and upper limits of quantitation for the assay were 1 and 5000 nM, respectively. Accuracy and precision (% RSD) based on analysis of standards and QC samples for this assay were 90.7% and 5.5% for plasma and 93.0% and 4.2% for tumor. Additional details may be found in Supplement S1 (section SA.1.).
Plasma and tumor pharmacokinetic parameters were calculated by noncompartmental analysis with WinNonlin. Everolimus plasma data was fit to a two-compartment model with first-order absorption and simulations of plasma concentrations at a 5 mg/kg dose of everolimus were performed by SAAM II version 2.1 (The Epsilon Group, Charlottesville, VA/University of Washington).

[2] = test system: HT29 tumor xenografts; assay: Therapeutic study and tumor growth modeling, HT29 tumor xenografts; type: in vivo, mice
Protocol: (§1) For tumor bearing studies, cells were harvested and resuspended in a 1∶1 mixture of serum-free RPMI and Matrigel (BD Bioscience). One million cells were injected subcutaneously into each rear flank of mice. Tumor volumes, measured by digital calipers, were calculated by V (mm^3) = length x (width)^2 x 0.5236.
(§2) When HT29 and HCT116 tumors reached an average volume of ∼325 mm^3 animals were randomized into four treatment groups (n = 9–10 mice per group): (i) vehicles, (ii) 5 mg/kg everolimus (RAD) by oral gavage (PO) daily, (iii) 10 mg/kg irinotecan (IRI) once weekly by intravenous (iv) tail vein injection, and (iv) a combination of RAD and IRI. Everolimus, diluted in sterile water, and irinotecan, diluted in sterile 0.9% saline, were administered at 4 mL/kg. Animals were treated for 28 days. Tumor volumes and body weights were measured 2–3 times weekly. On day 28 of treatment 3–6 animals per group were sacrificed, approximately 24 hours following everolimus treatment, and tumors harvested for metabolomic analysis.
(§3) Data from the in vivo study was modeled to assess the therapeutic benefit of adding everolimus to irinotecan. The model used was similar to a previously published model for assessing combination therapy. Some modifications were made and details of the model can be found in Supplement S1 (section SA.3.) and Supplement S2. All modeling was performed on individual animal tumor volume data and modeled with SAAM II version 2.1. […]
(§4) are presented in Tables 1 and 2 in Supplement B. Individual fits of the model to the data can also be found in Supplement B. The average growth terms for each tumor type were then fixed at the average parameter value and used to determine the single agent effects (kx) of each compound by fitting the following equation: […] where cx(t) is the concentration of drug x with respect to time. Individual tumors were modeled and the average value of kx determined (Supplement B Tables 1 & 2) for each single agent treatment. This value was used to fit the following equation to the combination tumor growth data to determine the degree of interaction between the two drugs.
(§5) , the interaction term, was determined for each individual tumor for each tumor type and the data is presented in Table 2 in the main text and individual fits can be found in Supplement B.
(§6) We determined that values greater than 1.3 are synergistic, between 1.3 and 0.7 are additive, between 0.7 and 0 are less than additive, and negative values for are antagonistic. These ranges were selected based on the model fits. The CV% for the model fits ranged from 15 to 50 with an average CV% of approximately 30%. Therefore we assume an average variance of 30% making the additive range from 1.3 to 0.7 (1 + 30% and 1- 30%). […]

[3] = test system: HCT116 tumor xenografts; assay: Therapeutic study and tumor growth modeling, HCT116 tumor xenografts; type: in vivo, mice
Protocol: as §1, §2, §3, §4, §5, §6

[4] = test system: HCT116 cells; assay: In vitro metabolomics, HCT116 cells; type: cell-based; details: 24 and 96 hours exposure to 30nM RAD001
Protocol: Metabolomics was performed in vitro on HCT116
(KRAS mt; PIK3CA mt) and HT29 (BRAF mt;
PIK3CA mt) cells after 0 (control), 24 and 96 hours exposure to 30nM RAD001. In both cell lines after 24 and 96 hours glucose uptake was reduced showing a decrease in proliferation. […]

[5] = everolimus, humans; cited from earlier work
[6] = test system: VEGF and bFGF stimulated endothelial cells (HUVECs); parameters: method as in PMID 19223496; details: read-out: IC50, anti-proliferative activity; cited from earlier work
[7] = 2.5 mg/kg daily oral for 7 days, Mouse, plasma, steady-state
[8] = 10 mg/kg daily oral for 7 days, Mouse, plasma, steady-state
[9] = mouse, po, HT29 tumor, 2.5 mg/kg, mice
[10] = mouse, po, HT29 tumor, 10 mg/kg, mice
[11] = mouse, po, plasma, 2.5 mg/kg, mice, non-compartmental analysis
[12] = mouse, po, plasma, 10 mg/kg, mice, non-compartmental analysis

CO[C@H]1C[C@@H]2CC[C@@H](C)[C@@](O)(O2)C(=O)C(=O)N2CCCC[C@H]2C(=O)O[C@H]([C@H](C)C[C@@H]2CC[C@@H](OCCO)[C@H](OC)C2)CC(=O)[C@H](C)/C=C(\C)[C@@H](O)[C@@H](OC)C(=O)[C@H](C)C[C@H](C)/C=C/C=C/C=C/1C [Everolimus, 40-O-(2-hydroxyethyl)-rapamycin]
Cmin [1, 7]: 12±6 ^b ng/mL | Cmin [1, 8]: 59±5 ^b ng/mL | AUCss,free (steady-state free plasma exposure) ([1]; 10 mg/kg in mice, 99% plasma protein binding used): 116 ng·h/mL | Cmax [1, 9]: 52 nM | Tmax [1, 9]: 0.5 h | AUC(0-t) ([1]; mouse, po, HT29 tumor, 2.5 mg/kg, mice, read-out: AUC0→24): 0.742 µM·h | Cmax [1, 10]: 250 nM | Tmax [1, 10]: 4 h | AUC(0-t) ([1]; mouse, po, HT29 tumor, 10 mg/kg, mice, read-out: AUC0→24): 3.93 µM·h | Cmax [1, 11]: 365 nM | Tmax [1, 11]: 0.5 h | AUC(0-t) ([1]; mouse, po, plasma, 2.5 mg/kg, mice, non-compartmental analysis, read-out: AUC0→24): 2 µM·h | CL/F [1, 11]: 20 mL/min/kg | Vd/F [1, 11]: 10.8 L/kg | Cmax [1, 12]: 1760 nM | Tmax [1, 12]: 0.5 h | AUC(0-t) ([1]; mouse, po, plasma, 10 mg/kg, mice, non-compartmental analysis, read-out: AUC0→24): 12.1 µM·h | CL/F [1, 12]: 13.8 mL/min/kg | Vd/F [1, 12]: 6 L/kg | Cmax [1, 7]: 350 ± 230 ng/mL | AUC(0-t) ([1]; 2.5 mg/kg daily oral for 7 days, Mouse, plasma, read-out: AUC0→t): 1920 ng·h/mL | half-life ([1]; 2.5 mg/kg daily oral for 7 days, Mouse, plasma): 6 h | Cmax [1, 8]: 1680 ± 277 ng/mL | AUC(0-t) ([1]; 10 mg/kg daily oral for 7 days, Mouse, plasma, read-out: AUC0→t): 11600 ng·h/mL | half-life ([1]; 10 mg/kg daily oral for 7 days, Mouse, plasma): 5 h | k2 (SD), single agent effect ([2]; HT29 (BRAF and PIK3CA mutant), RAD): 0.000263 (0.00015) mL/ng*day-1 | average tumor growth inhibition, TGI ([2]; HT29 xenografts, 5 mg/kg everolimus PO daily, 10 mg/kg irinotecan iv once weekly, or combination, 28 days): 40% | k2 (SD), single agent effect ([3]; HCT116 (KRAS and PIK3CA mutant), RAD): 0.000482 (0.00011) mL/ng*day-1 | average tumor growth inhibition, TGI ([3]; HCT116 xenografts, 5 mg/kg everolimus PO daily, 10 mg/kg irinotecan iv once weekly, or combination, 28 days): 44% | glucose uptake [4]: reduced | plasma protein binding [5]: 75% | IC50 [6]: 0.1 to 0.8 nM
